Assays:
Assay type in all cases: cell-based
Kv11.1 or Herg = molecular target: T1, Kv11.1 or Herg (Homo sapiens, UniProt Q12809); assay: Kv channel selectivity, Xenopus oocytes: Kv11.1; settings: 25 μM, −10 mV
T1 construct: expressed in transfected cells; host or cells: Xenopus oocytes
Experimental: (§1) Voltage-clamp measurements in Xenopus oocytes were performed as previously described.
(§2) The selectivity of NH29 on other relevant Kv channels expressed in Xenopus oocytes was also studied, and the results are summarized in Table 3 below. The specificity of NH29 at 25 μM and 50 μM towards various Kv channels was tested in Xenopus oocytes, except for Kv1.2 which was checked in transfected CHO cells. The current amplitude of the various Kv channels was tested at the indicated voltages and the effect of the drugs was expressed as fold of the control amplitude measured under the same conditions in the absence of the drug. The data in Table 3 are expressed as mean±SEM of 5-7 separate experiments.

Kv 2.1 = molecular target: T2, Kv 2.1 (Homo sapiens, UniProt Q14721); assay: Kv channel selectivity, Xenopus oocytes: Kv2.1; settings: 25 μM, +30 mV
T2 construct: expressed in transfected cells; host or cells: Xenopus oocytes
Experimental: as §1, §2

Kv 7.4 = molecular target: T3, Kv 7.4 (Homo sapiens, UniProt P56696); assay: Kv channel selectivity, Xenopus oocytes: Kv7.4; settings: −30 mV
T3 construct: expressed in transfected cells; host or cells: Xenopus oocytes
Experimental: as §1, §2

Kv 7.1 = molecular target: T4, Kv 7.1 (Homo sapiens, UniProt P51787); assay: Kv channel selectivity, Xenopus oocytes: Kv7.1; settings: for Fold current amplitude: +30 mV, Xenopus oocytes
T4 construct: expressed in transfected cells; host or cells: Xenopus oocytes
Experimental: as §1, §2

TRPV1 channel = molecular target: T5, TRPV1 channel (Homo sapiens, UniProt Q8NER1); assay: TRPV1 currents in transfected CHO cells activated with capsaicin; settings: 0.5 μM capsaicin
T5 construct: expressed in transfected cells; host or cells: CHO cells
Experimental: Chinese hamster ovary (CHO) cells were grown in Dulbecco's modified Eagle's medium (DMEM) supplemented with 2 mM glutamine, 10% fetal calf serum and antibiotics. Briefly, 40,000 cells seeded on poly-D-lysine-coated glass coverslips (13 mm diameter) in a 24-multiwell plate were transfected with pIRES-CD8 (0.5 μg) as a marker for transfection, and with Kv7.2 (0.5 μg) and Kv7.3 (0.5 μg) or TRPV1 […] or TRPV6 […].
For electrophysiology, transfected cells were visualized approximately 40 hours following transfection, using anti-CD8 antibody-coated beads. Transfection was performed using Fugene 6 (Roche, Indianapolis Ind., USA) according to the manufacturer's protocol.
Voltage-clamp recordings in CHO cells were performed, using the whole-cell configuration of the patch-clamp technique. Signals were amplified using an Axopatch 200B patch-clamp amplifier (Molecular Devices, Sunnyvale, Calif.), sampled at 2 kHz and filtered at 800 Hz via a 4-pole Bessel low pass filter. Data were acquired using pClamp 9.2 software (Molecular Devices) and an IBM compatible Pentium IV computer in conjunction with a DigiData 1322A interface (Molecular Devices). The patch pipettes were pulled from borosilicate glass (Warner Instrument Corp, USA) with a resistance of 2-5 MΩ. […] Series resistances (3-13 MΩ) were compensated (75-90%) and periodically monitored. […]

[1] = molecular target: T6, TRPV1 channels in Dorsal Root Ganglions (DRG) (Rattus norvegicus, UniProt O35433); assay: TRPV1 currents in DRG neurons activated by capsaicin; settings: 5 μM; 0.5 μM capsaicin; reversible
T6 construct: endogenous in cells; host or cells: primary rat dorsal root ganglion neurons
Experimental: FIG. 14 presents the inhibitory effect of NH29, an exemplary compound according to some embodiments of the present invention, on TRPV1 channels in Dorsal Root Ganglions (DRG).
For dorsal root ganglion (DRG) neuronal cultures, ganglia were dissected from 2-5 day-old Sprague-Dawley rats killed by decapitation. DRGs were placed in Hank's balanced saline solution (HBSS) and prepared by enzymatic dissociation. Briefly, after 30 minutes incubation in 5 mg/ml dispase, 2 mg/ml collagenase type 1A and 0.1 mg/ml DNase (Invitrogen/Gibco, Carlsbad, Calif.) in Ca^2+ and Mg^2+-free HBSS, the ganglia were mechanically triturated with a fire-polished glass Pasteur pipette. The ganglia were then centrifuged for 5 minutes at 80×g and resuspended in DMEM supplemented with 2 mM L-glutamine, 16.5 mM NaHCO3, 6 g/l glucose, 5 ml penicillin/streptomycin and 10% fetal calf serum.
For electrophysiological recording, dissociated neurons were plated on 13 mm glass coverslips, previously coated with poly-D-lysine (1 mg/ml) and laminin (10 μg/ml) and used at 1-2 days in culture.

KCNQ2 mutant R201A = molecular target: T7, KCNQ2 mutant R201A (Homo sapiens, UniProt O43526, R201A); assay: KCNQ2 S4 mutant R201A in CHO cells; settings: 25 μM NH29 (25 M [sic])
T7 construct: expressed in transfected cells; host or cells: CHO cells
Source text: (§3) FIGS. 12A-F present the potentiating effect of NH29, an exemplary channel opener compound according to embodiments of the present invention, on selected KCNQ2 mutants. Shown are bar diagrams comparing the potentiating effect of NH29 on native KCNQ2 and KCNQ2 mutants, wherein the mutated amino acids are located at the S1-S2 helix region (FIG. 12A) or S4 helix region (FIG. 12D) and wherein the opener effect is expressed as percent of the control current in the absence of the opener. For comparison, marked as a green line, is the observed current increase of native KCNQ2 by NH29. FIGS. 12B 12C, 12E and 12F present representative traces recorded from CHO cell transfected with the KCNQ2 mutant S122A, S121A, L206C and R201A respectively, before and after external application of 25 μM of NH29 and wherein the membrane potential was stepped from −90 mV holding potential to −40 mV for 1.5 seconds pulse duration.
(§4) Voltage-clamp recordings in CHO cells were performed, using the whole-cell configuration of the patch-clamp technique. Signals were amplified using an Axopatch 200B patch-clamp amplifier (Molecular Devices, Sunnyvale, Calif.), sampled at 2 kHz and filtered at 800 Hz via a 4-pole Bessel low pass filter. […] Series resistances (3-13 MΩ) were compensated (75-90%) and periodically monitored.

homomeric KCNQ3 channels = molecular target: T8, homomeric KCNQ3 channels (Homo sapiens, UniProt O43525); assay: Homomeric KCNQ3 channels; settings: 25 μM; very small currents through homomeric KCNQ3
T8 construct: expressed in transfected cells
Experimental: FIG. 8 presents a bar-graph comparing the potentiating effect of 25 μM of Compound NH29 on various KCNQ subunits and mutants, wherein the opener effect is expressed as percent of the control current in the absence of the opener;
FIG. 8 presents a bar-graph comparing the potentiating effect of 25 μM of Compound NH29 on various KCNQ subunits and mutants, wherein the opener effect is expressed as percent of the control current in the absence of the opener.

KCNQ2 mutant L206C = molecular target: T9, KCNQ2 mutant L206C (Homo sapiens, UniProt O43526, L206C); assay: KCNQ2 S4 mutant L206C in CHO cells; settings: 25 μM NH29
T9 construct: expressed in transfected cells; host or cells: CHO cells
Source text: as §3, §4

T4 sequence (P51787 whole entry): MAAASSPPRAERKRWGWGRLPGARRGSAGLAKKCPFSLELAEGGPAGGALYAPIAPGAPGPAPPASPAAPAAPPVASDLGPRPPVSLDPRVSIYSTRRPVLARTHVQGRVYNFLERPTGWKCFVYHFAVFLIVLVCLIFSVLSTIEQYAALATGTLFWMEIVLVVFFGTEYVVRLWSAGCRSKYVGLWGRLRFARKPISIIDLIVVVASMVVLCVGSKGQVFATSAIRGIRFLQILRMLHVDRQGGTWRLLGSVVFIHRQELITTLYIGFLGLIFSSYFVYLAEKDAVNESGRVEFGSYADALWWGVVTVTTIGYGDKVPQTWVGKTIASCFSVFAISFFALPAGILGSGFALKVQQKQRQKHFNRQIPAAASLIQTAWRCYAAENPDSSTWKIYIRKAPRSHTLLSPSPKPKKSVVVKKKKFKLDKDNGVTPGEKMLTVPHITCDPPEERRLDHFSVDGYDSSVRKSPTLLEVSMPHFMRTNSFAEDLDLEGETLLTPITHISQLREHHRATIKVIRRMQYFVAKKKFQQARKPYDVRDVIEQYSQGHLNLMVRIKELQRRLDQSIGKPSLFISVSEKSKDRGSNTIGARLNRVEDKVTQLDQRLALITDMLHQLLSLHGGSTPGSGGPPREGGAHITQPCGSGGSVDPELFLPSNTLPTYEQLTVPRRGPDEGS
T3 sequence (P56696 whole entry): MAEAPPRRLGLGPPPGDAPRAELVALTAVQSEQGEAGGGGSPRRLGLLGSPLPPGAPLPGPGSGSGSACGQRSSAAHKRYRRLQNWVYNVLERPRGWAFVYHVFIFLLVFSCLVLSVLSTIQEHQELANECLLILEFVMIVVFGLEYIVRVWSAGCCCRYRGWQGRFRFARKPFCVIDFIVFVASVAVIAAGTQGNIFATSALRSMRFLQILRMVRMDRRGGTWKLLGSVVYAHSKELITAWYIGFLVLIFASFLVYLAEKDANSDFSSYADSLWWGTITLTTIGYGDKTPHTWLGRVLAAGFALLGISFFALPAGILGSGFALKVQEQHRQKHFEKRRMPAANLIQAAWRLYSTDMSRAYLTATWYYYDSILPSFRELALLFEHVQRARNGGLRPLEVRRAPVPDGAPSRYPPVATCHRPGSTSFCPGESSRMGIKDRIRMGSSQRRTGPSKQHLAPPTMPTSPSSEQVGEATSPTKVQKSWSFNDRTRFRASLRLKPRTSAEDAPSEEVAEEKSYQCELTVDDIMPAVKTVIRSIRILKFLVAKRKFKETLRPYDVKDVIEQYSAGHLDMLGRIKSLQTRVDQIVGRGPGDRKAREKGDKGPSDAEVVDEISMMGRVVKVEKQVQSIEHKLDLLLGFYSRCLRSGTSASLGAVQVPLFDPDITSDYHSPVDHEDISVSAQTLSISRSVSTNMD
T5 sequence (Q8NER1 whole entry): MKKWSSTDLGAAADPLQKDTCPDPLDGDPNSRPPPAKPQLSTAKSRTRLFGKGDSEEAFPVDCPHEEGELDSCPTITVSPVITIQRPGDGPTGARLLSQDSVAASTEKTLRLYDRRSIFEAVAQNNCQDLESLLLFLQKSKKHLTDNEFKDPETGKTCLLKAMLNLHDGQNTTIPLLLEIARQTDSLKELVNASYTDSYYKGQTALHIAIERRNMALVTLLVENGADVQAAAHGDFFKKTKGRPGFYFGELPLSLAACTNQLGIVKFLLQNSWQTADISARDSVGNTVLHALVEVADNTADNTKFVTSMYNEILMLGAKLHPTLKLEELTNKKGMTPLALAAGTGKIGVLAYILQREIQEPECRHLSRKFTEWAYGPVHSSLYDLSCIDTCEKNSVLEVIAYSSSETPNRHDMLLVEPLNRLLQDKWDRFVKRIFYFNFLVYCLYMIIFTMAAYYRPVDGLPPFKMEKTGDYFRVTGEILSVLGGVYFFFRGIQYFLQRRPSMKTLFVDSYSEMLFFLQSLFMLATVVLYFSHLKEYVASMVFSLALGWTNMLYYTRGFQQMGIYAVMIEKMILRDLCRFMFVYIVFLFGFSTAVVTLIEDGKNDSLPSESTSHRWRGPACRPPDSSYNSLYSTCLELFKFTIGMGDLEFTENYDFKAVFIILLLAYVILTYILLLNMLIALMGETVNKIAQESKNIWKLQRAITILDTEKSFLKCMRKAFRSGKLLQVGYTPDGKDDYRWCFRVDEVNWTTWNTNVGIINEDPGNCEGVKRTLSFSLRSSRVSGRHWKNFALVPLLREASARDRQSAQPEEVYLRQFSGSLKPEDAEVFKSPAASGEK
T6 sequence (O35433 whole entry): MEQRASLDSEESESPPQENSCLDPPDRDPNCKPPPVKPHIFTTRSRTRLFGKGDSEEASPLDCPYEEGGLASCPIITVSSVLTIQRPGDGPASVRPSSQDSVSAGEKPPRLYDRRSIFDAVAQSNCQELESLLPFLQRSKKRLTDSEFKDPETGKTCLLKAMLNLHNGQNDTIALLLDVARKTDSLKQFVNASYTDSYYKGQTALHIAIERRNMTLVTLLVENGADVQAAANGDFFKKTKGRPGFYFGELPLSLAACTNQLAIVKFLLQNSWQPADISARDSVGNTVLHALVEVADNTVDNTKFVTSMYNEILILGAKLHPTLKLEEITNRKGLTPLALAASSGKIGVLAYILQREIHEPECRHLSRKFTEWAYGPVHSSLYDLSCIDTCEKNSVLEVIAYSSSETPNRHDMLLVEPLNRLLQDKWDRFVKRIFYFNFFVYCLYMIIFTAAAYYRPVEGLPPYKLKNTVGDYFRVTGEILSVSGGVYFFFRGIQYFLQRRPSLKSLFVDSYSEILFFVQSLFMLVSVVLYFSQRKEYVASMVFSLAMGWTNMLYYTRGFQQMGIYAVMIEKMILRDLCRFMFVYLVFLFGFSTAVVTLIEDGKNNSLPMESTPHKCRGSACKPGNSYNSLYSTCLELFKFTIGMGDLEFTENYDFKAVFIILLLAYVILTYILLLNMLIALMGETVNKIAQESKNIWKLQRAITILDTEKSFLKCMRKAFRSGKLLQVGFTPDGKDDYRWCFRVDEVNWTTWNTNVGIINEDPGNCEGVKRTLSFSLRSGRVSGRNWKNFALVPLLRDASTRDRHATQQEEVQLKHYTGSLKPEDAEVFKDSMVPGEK
T7 sequence (O43526 whole entry R201A): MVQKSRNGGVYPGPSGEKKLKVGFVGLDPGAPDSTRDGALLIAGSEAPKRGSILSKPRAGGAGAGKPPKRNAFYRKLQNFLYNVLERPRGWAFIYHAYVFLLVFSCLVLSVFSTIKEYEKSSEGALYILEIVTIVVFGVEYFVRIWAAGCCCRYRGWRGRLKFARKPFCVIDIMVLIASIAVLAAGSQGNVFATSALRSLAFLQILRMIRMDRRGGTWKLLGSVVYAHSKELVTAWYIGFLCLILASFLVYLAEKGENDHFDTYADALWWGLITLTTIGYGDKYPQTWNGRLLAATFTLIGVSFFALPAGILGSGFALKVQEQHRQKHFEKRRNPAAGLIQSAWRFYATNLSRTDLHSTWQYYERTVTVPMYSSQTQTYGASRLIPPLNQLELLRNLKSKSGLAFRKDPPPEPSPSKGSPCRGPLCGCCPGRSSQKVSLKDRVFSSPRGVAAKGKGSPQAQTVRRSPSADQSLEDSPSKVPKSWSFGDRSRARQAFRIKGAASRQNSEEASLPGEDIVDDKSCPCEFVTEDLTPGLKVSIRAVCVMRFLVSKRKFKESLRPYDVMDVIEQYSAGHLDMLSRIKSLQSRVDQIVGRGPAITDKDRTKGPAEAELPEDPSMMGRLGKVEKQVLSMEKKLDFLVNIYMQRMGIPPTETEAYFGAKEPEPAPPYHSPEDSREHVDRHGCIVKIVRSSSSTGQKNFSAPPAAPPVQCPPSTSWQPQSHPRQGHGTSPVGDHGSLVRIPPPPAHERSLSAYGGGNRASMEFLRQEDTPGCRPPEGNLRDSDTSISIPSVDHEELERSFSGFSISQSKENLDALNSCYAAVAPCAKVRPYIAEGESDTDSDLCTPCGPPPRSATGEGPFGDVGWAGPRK
T1 sequence (Q12809 whole entry): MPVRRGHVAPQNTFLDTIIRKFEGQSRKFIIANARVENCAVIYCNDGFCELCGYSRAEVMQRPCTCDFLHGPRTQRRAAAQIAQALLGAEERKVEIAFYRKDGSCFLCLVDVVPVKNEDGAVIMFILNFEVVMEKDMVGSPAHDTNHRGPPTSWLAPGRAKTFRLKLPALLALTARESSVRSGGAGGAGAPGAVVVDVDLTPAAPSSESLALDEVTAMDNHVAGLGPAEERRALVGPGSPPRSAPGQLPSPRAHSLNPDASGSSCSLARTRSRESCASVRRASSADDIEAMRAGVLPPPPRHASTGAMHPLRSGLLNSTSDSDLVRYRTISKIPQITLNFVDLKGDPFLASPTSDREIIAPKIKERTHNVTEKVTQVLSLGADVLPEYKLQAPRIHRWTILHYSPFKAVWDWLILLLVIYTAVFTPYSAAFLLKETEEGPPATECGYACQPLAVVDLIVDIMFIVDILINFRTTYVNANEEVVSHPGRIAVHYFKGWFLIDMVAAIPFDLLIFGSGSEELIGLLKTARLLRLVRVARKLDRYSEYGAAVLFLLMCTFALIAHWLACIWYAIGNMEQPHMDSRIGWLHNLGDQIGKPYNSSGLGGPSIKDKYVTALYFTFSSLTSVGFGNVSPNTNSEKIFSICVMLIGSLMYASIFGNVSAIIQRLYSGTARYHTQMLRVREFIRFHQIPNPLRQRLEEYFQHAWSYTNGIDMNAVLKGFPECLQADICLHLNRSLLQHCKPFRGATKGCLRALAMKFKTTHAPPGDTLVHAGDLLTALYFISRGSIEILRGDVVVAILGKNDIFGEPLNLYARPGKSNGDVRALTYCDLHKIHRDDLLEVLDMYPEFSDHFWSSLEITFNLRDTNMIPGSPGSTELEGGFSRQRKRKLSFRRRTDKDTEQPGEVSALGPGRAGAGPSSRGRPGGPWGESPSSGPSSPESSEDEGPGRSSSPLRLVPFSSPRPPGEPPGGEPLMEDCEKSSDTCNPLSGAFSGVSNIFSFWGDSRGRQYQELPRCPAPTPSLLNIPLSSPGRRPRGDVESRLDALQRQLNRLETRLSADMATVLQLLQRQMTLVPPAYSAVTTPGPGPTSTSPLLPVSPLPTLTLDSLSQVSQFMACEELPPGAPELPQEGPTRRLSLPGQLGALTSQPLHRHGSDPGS

For `O=C(Cc1cc([N+](=O)[O-])cc([N+](=O)[O-])c1Nc1c(Cl)cc([N+](=O)[O-])cc1Cl)NCCO` [NH29], the Fold current amplitude (Kv11.1 or Herg) was 1.1 ± 0.02 fold, the Fold current amplitude (Kv 2.1) was 1.2 ± 0.09 fold and the Fold current amplitude (Kv 7.4; 25 μM) was 1.0 ± 0.12 fold. For the same compound, the Fold current amplitude (Kv 7.4; 50 μM) was 0.9 ± 0.04 fold, the Fold current amplitude (Kv 7.1; 25 μM) was 0.93 ± 0.02 fold and the Fold current amplitude (Kv 7.1; 50 μM) was 0.72 ± 0.02 fold. The inhibition at 50 µM (Kv 7.1; 50 μM, read-out: inhibition of Kv7.1 current) was 23%, the “inhibition of TRPV1 channels” value (TRPV1 channel; NH29 at 5-50 M as printed) was “potently inhibited TRPV1 channels” and the “inhibition of TRPV1 current” value (TRPV1 channel; 50 μM, reversible) was “almost completely”. For the same compound, the “inhibition of TRPV1 current” value [1] was “almost completely”, the “fold enhancement of current” value (KCNQ2 mutant R201A) was 1.2 fold and the “opening activity on homomeric KCNQ3 channels” value (homomeric KCNQ3 channels) was “no opening activity was detected”. The “opener activity on S4 mutant L206C” value (KCNQ2 mutant L206C) was “NH29 activity was preserved”.

— patent US9403756B2, “N-phenyl anthranilic acid derivatives and uses thereof” (Ramot at Tel-Aviv University Ltd., priority 2007, dated 2016)
